US20220332782A1, “Combined Artificial Cell Death/Reporter System Polypeptide for Chimeric Antigen Receptor Cell and Uses Thereof” (Century Therapeutics, Inc., priority 2021, published 2022)

Key:
Assay type in all cases: cell-based
untransfected iPSCs = assay: ganciclovir treatment of untransfected iPSCs (WT control), cell confluency by imaging; conditions: 1 μM ganciclovir
Protocol: (§1) The ability to induce cell death in cells expressing the HSV-TK-PSMA fusion or HSV-TK alone was next tested. […] The resulting plasmid (p1474; shown in FIG. 4) was sequenced and grown up for purification using the Qiagen maxi-prep kit. Next, iPSCs were transfected with the p1499 or p1474 plasmids. Transfected and untransfected cells were plated into 6 well dishes (2×10^5 cells/well) and treated with and without 1 μM ganciclovir and imaged at 24 and 48 hours to monitor cell growth. […] It will be appreciated by those skilled in the art that changes could be made to the embodiments described above without departing from the broad inventive concept thereof. It is understood, therefore, that this invention is not limited to the particular embodiments disclosed, but it is intended to cover modifications within the spirit and scope of the present invention as defined by the present description.

[1] = test system: iPSCs expressing HSV-TK alone; assay: ganciclovir killing of iPSCs transfected with HSV-TK alone (p1474), cell confluency by imaging; conditions: 1 μM ganciclovir, 24 and 48 hours
Protocol: as §1

[2] = test system: HSV-TK (A168H)-T2A-PSMA engineered iPSCs; assay: ganciclovir killing of HSV-TK (A168H)-T2A-PSMA engineered iPSCs, visual inspection; conditions: 1 uM ganciclovir, 60 hours
Text: (§2) FIGS. 6A-6B show results from cells transfected with a HSV-TK […]-T2A-PSMA transgene.

[3] = test system: iPSCs expressing the HSV-TK-PSMA fusion; assay: ganciclovir killing of iPSCs transfected with HSV-TK-PSMA fusion (p1499), cell confluency by imaging; conditions: 1 μM ganciclovir
Protocol: as §1

[4] = test system: wild-type (WT; un-engineered) iPSCs; assay: ganciclovir treatment of wild-type (un-engineered) iPSCs, visual inspection; conditions: increasing concentrations of ganciclovir, 60 hours
Text: as §2

Structure (SMILES): Nc1nc(O)c2ncn(COC(CO)CO)c2n1 [ganciclovir]
- effect on cell growth (untransfected iPSCs; 24 hours and 48 hours): no effect
- cell confluency (untransfected iPSCs; 48 hours, WT cells): 73%
- confluency compared with untreated cells [1]: reduced confluency
- killing [2]: ~100%
- confluency compared with untreated cells ([3]; 24 and 48 hours): reduced confluency
- cell confluency ([3]; 48 hours, iPSCs expressing HSV-TK-PSMA): 6%
- effect on un-engineered cells [4]: unaffected
